Data taken from patent US20240067651A1 (Biohaven Therapeutics Ltd., priority 2019, published 2024).
Read-outs that look alike come from different tables or passages of the source. One block for each compound: values may come before it.

How the values were obtained:
Plasma Stability = assay type: in vitro ADME, human
In short: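 Parent compound quantified by LC-MS/MS after acetonitrile precipitation, reported as percent of control remaining (triplicate). Incubation: 1 hour, 37° C, fresh human plasma, compound at 1 μM.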

[1] = Stability in Simulated Gastric Fluid (SGF); assay type: in vitro ADME; parameters: key: % parent compound remaining relative to 0-minute sample
In short: (§1)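 Percent of parent remaining relative to time zero was measured by LC-MS/MS over 0–60 min at 37 °C, 150 rpm. Test compound was 2 μg/mL final in pepsin-containing SGF, pH 1.2, or pancreatin-containing SIF, pH 6.8. Degradation half-life was derived from the log-linear decay where enough points allowed.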

Caco-2 monolayer = assay: Caco-2 Permeability Assay; assay type: in vitro ADME, human
In short: (§2)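 Bidirectional transport at 37 °C for 90 min, 10 μM donor concentration, with or without Pgp inhibitor, across 21-day Caco-2 monolayers with TEER >600 […] in HEPES-buffered HBSS, pH 7.4. LC-MS/MS of donor and receiver samples gives Papp, B→A/A→B efflux ratio and mass recovery.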

[2] = Stability in Simulated Intestinal Fluid (SIF); assay type: in vitro ADME; parameters: key: % parent compound remaining relative to 0-minute sample
In short: as §1

[3] = Caco-2 Permeability Assay; assay type: in vitro ADME, human; settings: human
In short: as §2

[4] = % remaining at 1 h in human plasma, the 15th table
[5] = % remaining at 1 h in simulated gastric fluid, the 15th table
[6] = % remaining at 1 h in simulated intestinal fluid, the 15th table
[7] = simulated gastric fluid, remaining at 1 h
[8] = simulated intestinal fluid, remaining at 1 h
[9] = % @ 1 h (remaining) in human plasma
[10] = % @ 1 h (remaining) in simulated gastric fluid
[11] = % @ 1 h (remaining) in simulated intestinal fluid
[12] = Caco-2, pH 7.4, Caco-2 monolayer, the 15th table
[13] = Caco-2, pH 7.4, Caco-2 monolayer
[14] = bare number, unit or time not given, the 15th table Examples 204-207

human Plasma stability (Plasma Stability; [4]): 86% remaining
SGF [1, 5]: 98% remaining
Caco-2 Papp (nm/s) (Caco-2 monolayer; Caco-2 monolayer, the 15th table): unstable
SIF [2, 6]: 55% remaining
Compound: CC(C)OCCn1c(=S)[nH]c(=O)c2c1ccn2CO [Example 197]

human Plasma stability (Plasma Stability; % remaining after 1 h in human plasma): 77% remaining
SGF ([1]; % remaining after 1 h in simulated gastric fluid): 92% remaining
Caco-2 Papp (Caco-2 monolayer; Caco-2 monolayer): 5.08 ×10⁻⁶ cm/s
SIF ([2]; % remaining after 1 h in simulated intestinal fluid): 86% remaining
Compound: 17-[2-(propan-2-yloxy)ethyl]-16-sulfanylidene-3,5,8,11,13-pentaoxa-1,15,17-triazatricyclo[13.5.2.0^{18,21}]docosa-18(21),19-diene-4,12,22-trione [Example 404]

Compound: (2R)-2-{[(tert-butoxy)carbonyl]amino}-N-[2-(2-{[{{4-oxo-1-[2-(propan-2-yloxy)ethyl]-2-sulfanylidene-1H,2H,3H,4H,5H-pyrrolo[3,2-d]pyrimidin-5-yl}methoxy)carbonyl]oxy}ethoxy)eth-yl]-3-phenylpropanamide [Example 387]
human Plasma stability (Plasma Stability; human plasma, remaining at 1 h): 1% remaining
SGF [1, 7]: 92% remaining
Caco-2 Papp (Caco-2 monolayer; Caco-2 monolayer): 4.5 ×10⁻⁶ cm/s
SIF [2, 8]: 75% remaining

human Plasma stability (Plasma Stability; human plasma, remaining at 1 h): 1% remaining
SGF [1, 7]: 95% remaining
Caco-2 Papp (Caco-2 monolayer; Caco-2 monolayer): 0.12 ×10⁻⁶ cm/s
SIF [2, 8]: 71% remaining
Compound: tert-butyl 3-(2-{[{{4-oxo-1-[2-(propan-2-yloxy)ethyl]-2-sulfanylidene-1H,2H,3H,4H,5H-pyrrolo[3,2-d]pyrimidin-5-yl}methoxy)carbonyl]oxy}eth-oxy)propanoate [Example 392]

Compound: CC(C)OCCn1c(SCOC(=O)[C@H](N)Cc2ccccc2)nc(=O)c2c1ccn2COC(=O)[C@H](N)Cc1ccccc1.O=C(O)C(F)(F)F.O=C(O)C(F)(F)F [Example 312, bis(trifluoroacetic acid) {[5-({[(2R)-2-amino-3-phenylpropanoyl]oxy}methyl)-4-oxo-1-[2-(propan-2-yloxy)ethyl]-1H,4H,5H-pyrrolo[3,2-d]pyrimidin-2-yl]sulfanyl} methyl (2R)-2-amino-3-phenylpropanoate]
human Plasma stability (Plasma Stability; % remaining @ 1 h): 24% @ 1 h
SGF ([1]; % remaining @ 1 h): 99% @ 1 h
Caco-2 Papp (Caco-2 monolayer; Caco-2): >0.0994 ×10⁻⁶ cm/s
SIF ([2]; % remaining @ 1 h): 29% @ 1 h

Compound: CC(C)OCCn1c(SCOC(=O)N(C)Cc2ccccc2)nc(=O)c2c1ccn2COC(=O)N(C)Cc1ccccc1.O=C(O)C(F)(F)F [Example 174, trifluoroacetic acid {2-[{{[benzyl(methyl)carba-moyl]oxy}methyl)sulfanyl]-4-oxo-1-[2-(propan-2-yloxy)ethyl]-1H,4H,5H-pyrrolo[3,2-d]pyrimidin-5-yl}methyl N-benzyl-N-methylcarbamate]
human Plasma stability (Plasma Stability; [9]): 99% @ 1 h
SGF [1, 10]: 99% @ 1 h
Caco-2 Papp (Caco-2 monolayer; Caco-2 monolayer): 30.4 ×10⁻⁶ cm/s
SIF [2, 11]: 99% @ 1 h

Compound: CC(C)OCCn1c(SCOC(=O)CCCOC(=O)[C@H](NC(=O)OC(C)(C)C)C(C)C)nc(=O)c2c1ccn2COC(=O)CCCOC(=O)[C@H](NC(=O)OC(C)(C)C)C(C)C [Example 357, 4-{[2-({[(4-{[(2R)-2-{[(tert-butoxy)carbonyl]amino}-3-methylbutanoyl]oxy}buta-noyl)oxy]methyl}sulfanyl)-4-oxo-1-[2-(propan-2-yloxy)ethyl]-1H,4H,5H-pyrrolo[3,2-d]pyrimidin-5-yl]methoxy}-4-oxobutyl (2R)-2-{[(tert-butoxy)carbonyl]amino}-3-methylbutanoate]
human Plasma stability (Plasma Stability; human plasma, remaining at 1 h): 5% remaining
SGF [1, 7]: 98% remaining
Caco-2 Papp (Caco-2 monolayer; Caco-2 monolayer): 1.5 ×10⁻⁶ cm/s
SIF [2, 8]: 14% remaining

Compound: CC(C)C[C@H](NC(=O)OC(C)(C)C)C(=O)OCSc1nc(=O)c2c(ccn2COC(=O)[C@H](CC(C)C)NC(=O)OC(C)(C)C)n1CCOC(C)C [Example 315, {[5-({[(2S)-2-{[ (tert-butoxy)carbonyl]amino}-4-methylpentanoyl]oxy}methyl)-4-oxo-1-[2-(propan-2-yloxy)ethyl]-1H,4H,5H-pyrrolo[3,2-d]pyrimidin-2-yl]sulfanyl} methyl (2S)-2-{[(tert-butoxy)carbonyl]amino}-4-methylpentanoate]
human Plasma stability (Plasma Stability; % remaining @ 1 h): 7%@ 1 h
SGF ([1]; % remaining @ 1 h): 78%@ 1 h
Caco-2 Papp (Caco-2 monolayer; Caco-2): 14.1 ×10⁻⁶ cm/s
SIF ([2]; % remaining @ 1 h): 5%@ 1 h

Compound: CC(C)OCCn1c(=S)n(COC(=O)[C@H](C)N)c(=O)c2c1ccn2CO.O=C(O)C(F)(F)F [Example 290, trifluoroacetic acid [5-(hydroxymethyl)-4-oxo-1-[2-(propan-2-yloxy)ethyl]-2-sulfanylidene-1H,2H,3H,4H,5H-pyrrolo[3,2-d]pyrimidin-3-yl]methyl (2S)-2-aminopropanoate]
SGF ([1]; % remaining @ 1 h): 98% @ 1 h
Caco-2 Papp (nm/s) (Caco-2 monolayer): unstable
SIF ([2]; % remaining @ 1 h): 10% @ 1 h

human Plasma stability (Plasma Stability; [4]): 98% @ 1 h
SGF [1, 5]: 99% @ 1 h
Papp at 90 min, 10 µM [3, 12]: 30.6 ×10⁻⁶ cm/s
SIF [2, 6]: 97% @ 1 h
Compound: CCN(C(=O)OCSc1nc(=O)c2c(ccn2COC(=O)N(CC)C(C)C)n1CCOC(C)C)C(C)C [Example 189]

Compound: CC(C)OCCn1c(=S)[nH]c(=O)c2c1ccn2COC(=O)CCNC(=O)OC(C)(C)C [Example 6, {4-Oxo-1-[2-(propan-2-yloxy)ethyl]-2-sulfanylidene-1H,2H,3H,4H,5H-pyrrolo[3,2-d]pyrimidin-5-yl}methyl 3-{[(tert-butoxy)carbonyl]amino}propanoate]
human Plasma stability (Plasma Stability; % remaining at 1 h, human plasma, 1 μM, 37° C.): 59%
SGF ([1]; % remaining at 1 h, SGF with pepsin pH 1.2, 2 μg/mL, 37° C.): 82%
Papp at 90 min, 10 µM ([3]; Caco-2, pH 7.4, donor 10 μM, 90 minutes, 37° C., direction not given): 17.9 ×10⁻⁶ cm/s
SIF ([2]; % remaining at 1 h, SIF with pancreatin pH 6.8, 2 μg/mL, 37° C.): 67%

Compound: CCN(C)C(=O)OCn1ccc2c1c(=O)nc(SCOC(=O)N(C)C(C)C)n2CCOC(C)C.O=C(O)C(F)(F)F [Example 170]
human Plasma stability (Plasma Stability; [9]): 99% @ 1 h
SGF [1, 10]: 99% @ 1 h
Papp at 90 min, 10 µM [3, 13]: 14.1 ×10⁻⁶ cm/s
SIF [2, 11]: 92% @ 1 h

Compound: CC(C)OCCn1c(SCOC(=O)[C@@H](Cc2ccccc2)NC(=O)OC(C)(C)C)nc(=O)c2c1ccn2COC(=O)[C@@H](Cc1ccccc1)NC(=O)OC(C)(C)C [Example 306, {[5-({[(2R)-2-{[(tert-butoxy)carbonyl]amino}-3-phenylpropanoyl]oxy}methyl)-4-oxo-1-[2-(propan-2-yloxy)ethyl]-1H,4H,5H-pyrrolo[3,2-d]pyrimidin-2-yl]sulfanyl}methyl (2R)-2-{[(tert-butoxy)carbonyl]amino}-3-phenylpropanoate]
human Plasma stability (Plasma Stability; % remaining @ 1 h): 72% @ 1 h
SGF ([1]; % remaining @ 1 h): 41% @ 1 h
Papp at 90 min, 10 µM ([3]; Caco-2, pH 7.4): 3.8 ×10⁻⁶ cm/s
SIF ([2]; % remaining @ 1 h): 1% @ 1 h

Compound: C=CCCN(C)C(=O)OCSc1nc(=O)c2[nH]ccc2n1CCOC(C)C.O=C(O)C(F)(F)F [Example 179]
human Plasma stability (Plasma Stability; [9]): 99% @ 1 h
SGF [1, 10]: 95% @ 1 h
Papp at 90 min, 10 µM [3, 13]: 14.5 ×10⁻⁶ cm/s
SIF [2, 11]: 91% @ 1 h

Compound: CC(C)OCCn1c(SCOC(=O)[C@H](NC(=O)OC(C)(C)C)C(C)C)nc(=O)c2c1ccn2COC(=O)[C@H](NC(=O)OC(C)(C)C)C(C)C [Example 299, {[5-({[(2R)-2-{[(tert-butoxy)carbonyl]amino}-3-methylbutanoyl]oxy}methyl)-4-oxo-1-[2-(propan-2-yloxy)ethyl]-1H,4H,5H-pyrrolo[3,2-d]pyrimidin-2-yl]sulfanyl}methyl (2R)-2-{[(tert-butoxy)carbonyl]amino}-3-methylbutanoate]
human Plasma stability (Plasma Stability; % remaining @ 1 h): 94% @ 1 h
SGF ([1]; % remaining @ 1 h): 54% @ 1 h
Papp at 90 min, 10 µM ([3]; Caco-2, pH 7.4): 15.8 ×10⁻⁶ cm/s
SIF ([2]; % remaining @ 1 h): 27% @ 1 h

human Plasma stability (Plasma Stability; [4]): 1% remaining
SGF [1, 14]: 85
Papp at 90 min, 10 µM [3, 12]: 6.35 ×10⁻⁶ cm/s
SIF [2, 14]: 2
Compound: CCCCOC(=O)OCSc1nc(=O)c2[nH]ccc2n1CCOC(C)C [Example 204]

Compound: CC(C)OCCn1c(SCOC(=O)[C@@H](NC(=O)OC(C)(C)C)C(C)C)nc(=O)c2c1ccn2COC(=O)[C@@H](NC(=O)OC(C)(C)C)C(C)C [Example 295, {[5-({[(2S)-2-{[(tert-butoxy)carbonyl]amino}-3-methylbutanoyl]oxy}methyl)-4-oxo-1-[2-(propan-2-yloxy)ethyl]-1H,4H,5H-pyrrolo[3,2-d]pyrimidin-2-yl]sulfanyl}methyl (2S)-2-{[(tert-butoxy)carbonyl]amino}-3-methylbutanoate]
human Plasma stability (Plasma Stability; % remaining @ 1 h): 81% @ 1 h
SGF ([1]; % remaining @ 1 h): 58% @ 1 h
Papp at 90 min, 10 µM ([3]; Caco-2, pH 7.4): 17 ×10⁻⁶ cm/s
SIF ([2]; % remaining @ 1 h): 0% @ 1 h

human Plasma stability (Plasma Stability; human plasma, at 1 h): 2% remaining
SGF ([1]; simulated gastric fluid, at 1 h): 98% remaining
Papp at 90 min, 10 µM [3, 13]: 0.256 ×10⁻⁶ cm/s
SIF ([2]; simulated intestinal fluid, at 1 h): 3% remaining
Compound: CC(C)COC(=O)n1ccc2c1c(=O)[nH]c(=S)n2CCOC(C)C [Example 232]

Compound: CC(C)OCCn1c(=S)[nH]c(=O)c2c1ccn2COC(=O)CCCCNC(=O)[C@H](CCc1ccccc1)NC(=O)OC(C)(C)C.O=C(O)C(F)(F)F [Example 18]
human Plasma stability (Plasma Stability; % remaining at 1 h in human plasma): 66% remaining
SGF ([1]; % remaining at 1 h in simulated gastric fluid): 100%
Papp at 90 min, 10 µM [3, 13]: 7.59 ×10⁻⁶ cm/s
SIF ([2]; % remaining at 1 h in simulated intestinal fluid): 65% remaining
